In patent EP3421457B1, “PYRIMIDINE FGFR4 INHIBITORS” (priority 2013, dated 2015):
Where two headings read alike, the source gives them in different places. Values belong to the compound of their own block, whether it stands above or below them.

Experiments:
Hep3B cells = type: in vivo; details: Hep3B xenograft; for efficacy (tumor volume): FIG. 4
HEP3B = experiment: Cellular Viability assay to obtain GI50 (CellTiter-Glo); type: cell-based; details: Homo sapiens, 72h, FGF19 amplified line
JHH7 = experiment: as above; type: cell-based; details: Homo sapiens; JHH7, 72h, FGF19 amplified line
HUH7 = experiment: as above; type: cell-based; details: Homo sapiens, Huh-7; HUH7, 72h, FGF19 amplified line
HEPG2 = experiment: as above; type: cell-based; details: Homo sapiens; HEPG2, 72h, FGF19 non-amplified
FGFR4 = molecular target: T1, FGFR4 (Homo sapiens, UniProt P22455); experiment: IC50 Profiling of Kinase Activity Inhibition (Kinase HotSpot assay); type: biochemical; details: Table 1
T1 construct: purchased Invitrogen

FGFR1 = molecular target: T2, FGFR1 (Homo sapiens, UniProt P11362); experiment: as above; type: biochemical; details: Table 1
T2 construct: purchased Invitrogen
T2 sequence (P11362 22-822): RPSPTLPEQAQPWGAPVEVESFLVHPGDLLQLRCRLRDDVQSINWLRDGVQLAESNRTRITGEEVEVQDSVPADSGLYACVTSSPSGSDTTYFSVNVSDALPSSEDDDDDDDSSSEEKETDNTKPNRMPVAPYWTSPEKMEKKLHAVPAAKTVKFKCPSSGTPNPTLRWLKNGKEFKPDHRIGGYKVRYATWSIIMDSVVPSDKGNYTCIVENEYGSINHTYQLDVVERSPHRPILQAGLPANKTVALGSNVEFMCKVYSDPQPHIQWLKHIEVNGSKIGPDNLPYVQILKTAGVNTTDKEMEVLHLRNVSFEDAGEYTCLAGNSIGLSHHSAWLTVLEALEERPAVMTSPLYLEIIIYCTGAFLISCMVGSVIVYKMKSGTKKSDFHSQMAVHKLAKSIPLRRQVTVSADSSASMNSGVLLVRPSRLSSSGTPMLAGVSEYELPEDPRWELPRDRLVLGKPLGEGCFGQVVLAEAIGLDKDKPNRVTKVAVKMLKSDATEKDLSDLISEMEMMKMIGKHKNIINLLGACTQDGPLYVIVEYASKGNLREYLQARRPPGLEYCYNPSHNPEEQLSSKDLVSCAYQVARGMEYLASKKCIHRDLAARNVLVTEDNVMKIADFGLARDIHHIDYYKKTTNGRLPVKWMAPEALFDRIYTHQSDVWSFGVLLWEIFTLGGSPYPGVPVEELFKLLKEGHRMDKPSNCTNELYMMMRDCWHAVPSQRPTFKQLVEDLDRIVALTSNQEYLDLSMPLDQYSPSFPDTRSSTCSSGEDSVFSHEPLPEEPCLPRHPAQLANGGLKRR

T1 sequence (P22455 22-802): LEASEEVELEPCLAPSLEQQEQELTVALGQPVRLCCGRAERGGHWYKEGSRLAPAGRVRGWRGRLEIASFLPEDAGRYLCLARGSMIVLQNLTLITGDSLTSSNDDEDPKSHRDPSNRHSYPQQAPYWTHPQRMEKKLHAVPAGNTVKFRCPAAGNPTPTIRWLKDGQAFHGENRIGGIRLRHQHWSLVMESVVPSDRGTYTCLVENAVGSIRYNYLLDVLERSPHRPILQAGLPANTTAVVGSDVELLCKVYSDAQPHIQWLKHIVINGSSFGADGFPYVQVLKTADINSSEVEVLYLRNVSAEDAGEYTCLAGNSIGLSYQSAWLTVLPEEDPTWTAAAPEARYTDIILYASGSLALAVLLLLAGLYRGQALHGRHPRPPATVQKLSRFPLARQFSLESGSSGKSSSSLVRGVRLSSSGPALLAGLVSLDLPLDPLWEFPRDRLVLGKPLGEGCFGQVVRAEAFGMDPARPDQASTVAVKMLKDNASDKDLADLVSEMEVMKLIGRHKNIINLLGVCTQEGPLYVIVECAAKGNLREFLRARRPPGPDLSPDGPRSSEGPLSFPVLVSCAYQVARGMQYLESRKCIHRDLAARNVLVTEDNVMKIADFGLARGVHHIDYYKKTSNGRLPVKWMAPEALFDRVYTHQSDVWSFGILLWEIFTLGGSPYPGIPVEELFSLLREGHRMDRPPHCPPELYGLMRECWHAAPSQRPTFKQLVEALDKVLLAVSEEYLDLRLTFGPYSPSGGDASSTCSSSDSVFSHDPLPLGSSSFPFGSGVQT

Structure (SMILES): C=CC(=O)Nc1cc(N2CCN(CC)CC2)ccc1Nc1cc(N(C)C(=O)Nc2c(Cl)c(OC)cc(OC)c2Cl)ncn1 [Compound 108, N-(2-(6-(3-(2,6-Dichloro-3,5-dimethoxyphenyl)-1-methylureido)pyrimidin-4-ylamino)-5-(4-ethylpiperazin-1-yl)phenyl)acrylamide]
efficacy (tumor volume) (Hep3B cells; dosed for 18 days, Compound 108 versus BGJ398): more efficacious than BGJ398 at tolerable dosage levels

Structure (SMILES): CCN1CCN(c2ccc(Nc3cc(N(C)C(=O)Nc4c(Cl)c(OC)cc(OC)c4Cl)ncn3)cc2)CC1 [BGJ398]
GI50 (HEP3B): 74 ± 23 nM
GI50 (JHH7): 178 ± 30 nM
GI50 (HUH7): 231 ± 100 nM
GI50 (HEPG2): 2260 ± 1180 nM
efficacy (tumor volume) (Hep3B cells; BGJ398 at 60mg/kg): efficacy comparable to compound 108
toxicity (health of animals) (Hep3B cells; BGJ398 at 60mg/kg): terminated on Day 11 due to poor health of animals
toxicity (health of animals) (Hep3B cells; dosed orally with BGJ398 at 30mg/kg): did not exhibit poor health

IC50 (FGFR4): 201 nM
IC50 (FGFR1): > 10000 nM
Structure (SMILES): C=CC(=O)Nc1ccccc1Nc1cc(N(C)C(=O)Nc2cc(OC)cc(OC)c2Cl)ncn1 [Compound 105]

IC50 (FGFR4): 673 nM
IC50 (FGFR1): > 10000 nM
Structure (SMILES): C=CC(=O)Nc1ccccc1Nc1cc(N(C)C(=O)Nc2cccc(OC)c2Cl)ncn1 [Compound 103]
